{
  "source": "paper PMC9569529",
  "about": "“Safe and Efficient Sigma1 Ligand: A Potential Drug Candidate for Multiple Sclerosis” (International Journal of Molecular Sciences, 2022)",
  "key": {"[1]": {"test_system": "S1R–BiP complex", "assay": "S1R-BiP dissociation assay in CHO cells (co-IP, ELISA)", "type": "cell-based", "settings": "for effect on S1R–BiP association: 10 µM, 30-min incubation", "experimental": "The activity of compound 7i was evaluated in regard to its ability to dissociate the S1R–BiP complex. The S1R–BiP dissociation assay was performed by Amylgen (Montferrier-sur-Lez, France) as described in [13, 79]. Briefly, CHO cells were treated with test compounds for 30 min (37 °C). Crosslinking was performed with dithiobis succinimidyl propionate (DSP; Thermoscientific, Waltham, MA, USA). Lysis was performed after incubation for 15 min on ice. After centrifugation, supernatants were incubated overnight (4 °C) with the S1R antibody (Abcam, Cambridge, UK). Lysates were incubated with Sepharose Protein-A (Invitrogen). After the first centrifugation, the pellet was resuspended in radioimmunoprecipitation assay (RIPA) buffer. After a second centrifugation, the pellet was resuspended in 2× sample buffer/bMCE buffer. After the third centrifugation, supernatants were analyzed for BiP immunoreactivity (SEC343Mu ELISA, USCNK Life Sciences, Wuhan, China)."}, "[2]": {"test_system": "dizocilpine-induced learning deficits", "assay": "Dizocilpine-induced learning deficits, step-through passive avoidance", "type": "in vivo, male Swiss mice", "settings": "3 mg/kg i.p., alone", "experimental": "(§1) The activity of compound 7i was evaluated in regard to its ability to reverse dizocilpine-induced learning deficits. Two behavioral tests were performed by Amylgen (Montferrier-sur-Lez, France) on male Swiss mice (aged 6–9 weeks). All compounds (7i and controls) were intraperitoneally injected.\n(§2) Animals were tested for spontaneous alternation performance in the Y-maze, an index of spatial working memory. Made of grey polyvinylchloride, the Y-maze has an arm which is 40 cm long, 13 cm high and 3 cm wide at the bottom and 10 cm wide at the top, converging at an equal angle. Each mouse was placed at the end of one arm and allowed to move freely through the maze during an 8-min session. The series of arm entries, including possible returns into the same arm, were checked visually. An alternation was defined as entries into all three arms on consecutive occasions. The number of maximum alternations was therefore the total number of arm entries minus two, and the percentage of alternation was calculated as: (actual alternations/maximum alternations) × 100. Parameters included the percentage of alternation (memory index) and the total number of arm entries (exploration index). Animals showing extreme behavior (alternation < 20% or >90% or number of arm entries < 10) are usually discarded from the calculations. […] Step-through latency (the latency in time spent to enter the dark compartment) and the number of vocalizations were recorded. […] Step-through latency was recorded up to 300 s. When either the mouse entered the dark compartment or 300 s had elapsed (they were therefore manually placed in it), escape latency (latency to exit from the dark compartment) was recorded with a value of up to 300 s. […]"}, "[3]": {"test_system": "dizocilpine-induced learning deficits", "assay": "Dizocilpine-induced learning deficits, Y-maze spontaneous alternation", "type": "in vivo, male Swiss mice", "settings": "3 mg/kg i.p., alone", "experimental": "as §1, §2"}, "[4]": {"test_system": "S. typhimurium TA1537", "assay": "Ames test", "settings": "7i 40 µg/plate"}, "[5]": {"test_system": "experimental autoimmune encephalomyelitis (EAE)", "parameters": "method as in PMID 25521311", "settings": "BD-1047 alone; cited from earlier work"}, "[6]": {"test_system": "S. typhimurium TA98", "assay": "Ames test", "settings": "7i 40 µg/plate"}, "[7]": {"test_system": "S. typhimurium TA1535", "settings": "+S9; 7i 40 µg/plate; positive control 2-anthramine 0.5"}, "[8]": {"test_system": "S. typhimurium TA100", "settings": "+S9; 7i 40 µg/plate; positive control 2-anthramine 0.5"}, "[9]": {"test_system": "TK6 cells", "settings": "human", "quoted_text": "The frequency of micronucleated (MN) cells was determined out of at least 2000 mononucleated cells."}, "[10]": {"test_system": "QT interval", "assay": "ECG QT interval analysis under isoflurane anesthesia", "settings": "for QT Interval Basal / QT Interval 3 min / QT Interval 6 min / QT Interval 10 min: in ms (unit assumed); for QT Interval 3 min: 3 min after injection; for QT Interval 6 min: 6 min after injection; for QT Interval 10 min: 10 min after injection", "quoted_text": "Four electrodes were inserted subcutaneously in the mouse limbs. Electrical signals were recorded with a Powerlab (Ad instruments) and analyzed with LabChart Pro software (v8.1.19).\nHeart rate and PR, QRS and QT intervals were measured as described in Supplementary Figure S3."}, "[11]": {"settings": "+S9, positive control 2-anthramine 0.5"}},
  "data": [
    {"smiles": "CCCN(CCC)CCc1ccc(OC)c(OCCc2ccccc2)c1", "note": "[NE-100, reference compound]", "values": [
      {"measurement": "effect on S1R–BiP association", "setting": "[1]", "value": "no effect"},
      {"measurement": "effect by itself in passive avoidance", "setting": "[2]", "value": "devoid of any effect"},
      {"measurement": "effect by itself in Y-maze", "setting": "[3]", "value": "devoid of any effect"}
    ]},
    {"smiles": "Nc1c2ccccc2nc2ccccc12", "note": "[9-amino-acridine, reference compound]", "values": [
      {"measurement": "Ames TA1537 −S9 (Mean revertants/well per title)", "setting": "[4]; −S9, positive control 9-amino-acridine 1.56", "value": 8.4}
    ]},
    {"smiles": "CN(C)CCN(C)CCc1ccc(Cl)c(Cl)c1", "note": "[BD-1047]", "values": [
      {"measurement": "effect on EAE development, alone", "setting": "[5]", "value": "no significant effect"}
    ]},
    {"smiles": "O=C(OCCN1CCOCC1)C1(c2ccccc2)CCCCC1", "note": "[PRE-084, reference compound]", "values": [
      {"measurement": "effect on S1R–BiP association", "setting": "[1]", "value": "significantly causes the dissociation"},
      {"measurement": "effect on S1R–BiP dissociation in presence of NE-100", "setting": "[1]; co-treatment with NE-100 (10 µM)", "value": "blocks"}
    ]},
    {"smiles": "Nc1ccc2cc3ccccc3cc2c1", "note": "[2-anthramine, reference compound]", "values": [
      {"measurement": "Ames TA98 +S9 (Mean revertants/well per title)", "setting": "[6]; [11]", "value": 36.0},
      {"measurement": "Ames TA1535 +S9 (Mean revertants/well per title)", "setting": "[7]", "value": 26.9},
      {"measurement": "Ames TA1537 +S9 (Mean revertants/well per title)", "setting": "[4]; [11]", "value": 27.6},
      {"measurement": "Ames TA100 +S9 (Mean revertants/well per title)", "setting": "[8]", "value": 6.0}
    ]},
    {"smiles": "O=[N+]([O-])c1ccc2c(c1)Cc1ccccc1-2", "note": "[2-nitrofluorene, reference compound]", "values": [
      {"measurement": "Ames TA98 −S9 (Mean revertants/well per title)", "setting": "[6]; −S9, positive control 2-nitrofluorene 0.5", "value": 23.1}
    ]},
    {"smiles": "O=P1(N(CCCl)CCCl)NCCCO1", "note": "(centres unmarked) [Cyclophosphamide]", "values": [
      {"measurement": "MN/2 × 10^3 Cells", "setting": "[9]", "value": 35.5},
      {"measurement": "RS (%)", "setting": "[9]", "value": 88.3, "unit": "%"}
    ]},
    {"smiles": "C=C[C@H]1C[N@@]2CC[C@H]1C[C@@H]2[C@@H](O)c1ccnc2ccc(OC)cc12", "note": "[Quinidine, reference compound]", "values": [
      {"measurement": "QT interval, conclusion", "setting": "[10]; 10 mg/kg and 100 mg/kg i.p., 6 to 10 min after injection", "value": "dose-dependently prolonged the QT interval"},
      {"measurement": "QT Interval Basal", "setting": "[10]; 10.0 mg/kg i.p. group", "value": "46 ± 2"},
      {"measurement": "QT Interval 3 min", "setting": "[10]; 10.0 mg/kg i.p.", "value": "50 ± 2"},
      {"measurement": "QT Interval 6 min", "setting": "[10]; 10.0 mg/kg i.p.", "value": "64 ± 6"},
      {"measurement": "QT Interval 10 min", "setting": "[10]; 10.0 mg/kg i.p.", "value": "65 ± 5"},
      {"measurement": "QT Interval Basal", "setting": "[10]; 100.0 mg/kg i.p. group", "value": "47 ± 4"},
      {"measurement": "QT Interval 3 min", "setting": "[10]; 100.0 mg/kg i.p.", "value": "58 ± 3"},
      {"measurement": "QT Interval 6 min", "setting": "[10]; 100.0 mg/kg i.p.", "value": "84 ± 7"},
      {"measurement": "QT Interval 10 min", "setting": "[10]; 100.0 mg/kg i.p.", "value": "76 ± 4"}
    ]}
  ]
}
